pEC50, pIC50, pKi: −log10 of the molar value. “And” between values parts separate entries of the source, which are not always exact repeats. Equal entries are not always repeated. Where two headings read alike, the source gives them in different places.
Tests used:
[1] = system: HIV; test: Inhibition of HIV-induced cytopathogenicity in MT4 cells; assay type: cell-based; conditions: for pEC50: 50% reduction in the cytopathic effect of HIV for MT4 cells, 5 days, read-out: HIV-induced cyto-pathogenicity ED50; for HIV-induced cyto-pathogenicity S.I.: Selectivity index or ratio of CD50 to ED50, MT4 cells
Experimental: HTLV-IIIB (designated HIV) was derived from a pool of American patients with AIDS, and obtained from the supernatant of HIV-infected H9 cell cultures (see M. Popovic et al, Science 224, 497-500 (1984)).
FddUrd, the unsubstituted analogue and other 3′-fluoro- and 3′-azido-substituted analogues were evaluated for their inhibitory effects on HIV-induced cytopathogenicity in MT4 cells (Table 1, fig. 2).

[2] = system: Moloney murine sarcoma virus (MSV); test: Inhibition of transformation of C3H cells by MSV; assay type: cell-based; conditions: for pEC50: Moloney murine sarcoma virus, 144 h, 50% reduction of transformation of C3H cells by MSV, 6 days, read-out: MSV-induced cyto-pathogenicity ED50; for MSV-induced cyto-pathogenicity S.I.: Selectivity index or ratio of CD50 to ED50, C3H cells
Experimental: Moloney murine sarcoma virus (MSV) was prepared from tumors induced by in vivo infection of 10 day-old NMRI mice according to the procedure described by De Clercq et al (Proc. Soc. Exp. Biol. Med. 137, 590-594 (1971)).
ddUrd and the substituted pymiridine 2′,3′-dideoxynucleoside analogues were examined for their inhibitory effect on the transformation of mouse embryo C3H fibroblasts by Moloney murine sarcoma virus (MSV).
C3H cells were seeded at 20,000 cells per ml into wells of Costar Tissue Culture Cluster plates (48 wells per plate) and grown to confluency. Cell cultures were then infected by 150 foci-forming units of MSV during 90 min, whereafter the culture medium was replaced by 1 ml fresh medium containing different concentrations of the test compound. After 6 days, the transformation of the cell cultures was examined microscopically.

[3] = system: CEM; test: Cytostatic effect (cell proliferation, Coulter count); assay type: cell-based; conditions: Homo sapiens, CCRF-CEM; cell number reduced by 50%, 68-72 hours; read-out: ID50 CEM
Experimental: (§1) Raji/0 cells and Raji/TK⁻ (a thymidine (dThd) kinasedeficient mutant cell line derived from wild-type Raji/0 cells, were grown in 75 cm² plastic tissue culture flasks (International Medical, Brussels, Belgium), in Eagle's minimal essential medium, supplemented with 10% (v/v) inactivated foetal calf serum (Gibco, Glasgow, Scotland, U.K.), 2 mM L-glutamine (Flow Laboratories, Irvine, Scotland, U.K.) and 1% THM (5 mM Tes, 7.5 mM Hepes and 5 mM (MOPS) buffer ([…]). The Raji/0 and Raji/TK⁻ cells were characterized according to J. Balzarini et al (Biochem. Pharmacol. 31, 1089-1095 (1982)). Molt/4F, CEM and H9 cells were grown in Eagle's minimal essential medium, supplemented with 10% (v/v) inactivated foetal calf serum and 2 mM L-glutamine. MT4 cells were cultivated in RPMI 1640 medium (Gibco) containing 20 mM Hepes buffer, 10% (v/v) inactivated foetal calf serum (Gibco) and 2 mM L-glutamine (Flow Laboratories).
(§2) All assays were performed in flat bottom Microtest III Plates (96 wells) (Falcon) as previously described by E. De Clercq et al (Mol. Pharmacol. 19, 321-330 (1981)). Briefly, the cells were suspended in growth medium and added to the microplate wells at a density of 7.5 x 10⁴ cells/well (200 µ1) in the presence of varying concentrations of the test compounds. The cells were then allowed to proliferate for 68-72 hours at 37°C in a humidified, CO₂-controlled atmosphere. At the end of the incubation period, the cells were counted with a Coulter Counter (Coulter Electronics Ltd., Harpenden Herts, U.K.). The 50% inhibitory dose (ID₅₀) was defined as the concentration of compound that reduced the number of cells by 50%.

[4] = system: H9; test: as above; assay type: cell-based; conditions: Homo sapiens, cell number reduced by 50%, 68-72 hours, read-out: ID50 H9
Experimental: as §1, §2

[5] = system: MT4; test: as above; assay type: cell-based; conditions: Homo sapiens, cell number reduced by 50%, 68-72 hours, read-out: ID50 MT4
Experimental: as §1, §2

[6] = system: Molt/4F; test: as above; assay type: cell-based; conditions: Homo sapiens, cell number reduced by 50%, 68-72 hours, read-out: ID50 Molt/4F
Experimental: as §1, §2

[7] = system: Raji/0; test: as above; assay type: cell-based; conditions: Homo sapiens, cell number reduced by 50%, 68-72 hours, read-out: ID50 Raji/0
Experimental: as §1, §2

[8] = system: Raji/TK-; test: as above; assay type: cell-based; conditions: Homo sapiens, cell number reduced by 50%, 68-72 hours, read-out: ID50 Raji/TK-
Experimental: as §1, §2

[9] = target: T1, Molt/4F dThd kinase (Homo sapiens, UniProt P04183); test: Inhibition of dThd kinase (Lineweaver-Burk); assay type: biochemical; conditions: for inhibitory activity against dThd kinase (in words): at a concentration as high as 750 µM or 1000 µM; for pKi: substrate (2-14C)dThd; for Type of inhibition: with respect to dThd
T1 construct: endogenous in cells; host or cells: Molt/4F cells (sonicated extract, 30-70% ammonium sulfate fraction, dialyzed)
T1 sequence (P04183 1-234): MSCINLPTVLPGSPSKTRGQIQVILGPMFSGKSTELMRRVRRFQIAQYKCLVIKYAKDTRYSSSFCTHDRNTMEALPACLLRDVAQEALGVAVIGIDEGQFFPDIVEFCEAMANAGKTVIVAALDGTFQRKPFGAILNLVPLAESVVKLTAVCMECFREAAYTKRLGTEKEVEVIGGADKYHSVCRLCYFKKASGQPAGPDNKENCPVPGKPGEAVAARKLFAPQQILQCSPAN
Experimental: ddUrd and the 3′-fluoro- and 3′-azido-substituted pyrimidine 2′,3′-dideoxynucleoside analogues were evaluated for their inhibitory effect against dThd and dCyd kinase.
dThd kinase and dCyd kinase were prepared from exponen tially growing Molt/4F cells, which were first washed (2x) with phosphate-buffered saline at 4° and then homogenized by sonication. The suspensions were clarified by centrifugation at 25,000-27,000 x g for 30 min. The 30-70% (NH₄)₂SO₄ precipitate of the supernatant was resuspended in buffer containing 10 uM potassium phosphate, pH 7.5, 10 mM β-mercaptoethanol and 0.1 M KCl, dialyzed against the same buffer, and used for the dThd kinase and the dCyd kinase assays. In these experiments, (2-¹⁴C)dThd and (U-¹⁴C)dCyd served as the radiolabelled substrates. The apparent Km and Ki values were derived from Lineweaver-Burk plots, using a linear regression analysis program.

[10] = Human immunodeficiency virus 1, MT4, 120 h

CCc1cn([C@H]2CC[C@@H](CO)O2)c(=O)[nH]c1=O [ddEtUrd, 2′,3′-Dideoxy-5-ethyluridine] gave a pEC50 [1] of under 3.20, a pEC50 [2] of under 3.40 and a pIC50 [3] of under 3.00. For the same compound, the pIC50 [4] was under 3.00, the pIC50 [5] was 3.49 and the pIC50 [6] was under 3.00. The pIC50 [7] was under 3.00, the pIC50 [8] was under 3.00 and the “inhibitory activity against dThd kinase (in words)” value [9] was “no inhibitory activity”. For the same compound, the pKi ([9]; dThd kinase) was under 3.12 and the Ki/Km ([9]; dThd kinase, Km 2.5 to 6.6 µM) was over 200.
For CCc1cn([C@H]2C[C@H](F)[C@@H](CO)O2)c(=O)[nH]c1=O [FddEtUrd, 3′-fluoro-2′,3′-dideoxy-5-ethyluridine], the pEC50 [1] was 3.48, the “HIV-induced cyto-pathogenicity S.I.” value [1] was over 1.9 and the pEC50 [2] was under 3.40. The pIC50 [3] was under 3.00, the pIC50 [4] was under 3.00 and the pIC50 [5] was under 3.00. For the same compound, the pIC50 [6] was under 3.00, the pIC50 [7] was under 3.00 and the pIC50 [8] was under 3.00. The pKi ([9]; dThd kinase) was 3.58, the Type of inhibition ([9]; dThd kinase) was “competitive” and the Ki/Km ([9]; dThd kinase, Km 2.5 to 6.6 µM) was 72.
Nc1ccn([C@H]2C[C@H](F)[C@@H](CO)O2)c(=O)n1 [FddCyd, 3′-fluoro-2′,3′-dideoxycytidine] was tested, and the pEC50 [1, 10] was 4.80, the “HIV-induced cyto-pathogenicity S.I.” value [1] was 1.6 and the pEC50 [2] was 3.55. For the same compound, the “MSV-induced cyto-pathogenicity S.I.” value [2] was over 1.2, the pIC50 [3] was 5.15 and the pIC50 [4] was under 3.00. For the same compound, the pIC50 [5] was under 3.00, the pIC50 [6] was 4.62 and the pIC50 [7] was 4.02. The pIC50 [8] was 3.93.
In the case of [N-]=[N+]=N[C@H]1C[C@H](n2ccc(=O)[nH]c2=O)O[C@@H]1CO [AzddUrd, 3′-azido-2′,3′-dideoxyuridine], the “fold more effective against HIV replication than the parent compound ddUrd” value [1] was 600 fold, the pEC50 ([1]; Human immunodeficiency virus 1, 120 h) was 6.44 and the “HIV-induced cyto-pathogenicity S.I.” value [1] was 677. For the same compound, the pEC50 [2] was 4.82, the “MSV-induced cyto-pathogenicity S.I.” value [2] was over 27 and the pIC50 [3] was 3.37. It also gave a pIC50 [4] of under 3.00, a pIC50 [5] of 3.44 and a pIC50 [6] of under 3.00. The pIC50 [7] was at most 3.00, the pIC50 [8] was under 3.00 and the Ki/Km [9] was 71. The pKi ([9]; dThd kinase) was 3.65 and the Type of inhibition ([9]; dThd kinase) was “competitive”.
With O=c1ccn([C@H]2CC[C@@H](CO)O2)c(=O)[nH]1 [ddUrd, 2′-3′-dideoxyuridine] the pEC50 [1] was 3.68, the pEC50 [1, 10] was under 4.19 and the “HIV-induced cyto-pathogenicity S.I.” value [1] was over 3. For the same compound, the pEC50 [2] was under 3.40, the pIC50 [3] was under 3.00 and the pIC50 [4] was under 3.00. It also gave a pIC50 [5] of at most 3.00, a pIC50 [6] of under 3.00 and a pIC50 [7] of under 3.00. The pIC50 [8] was under 3.00, the Ki/Km [9] was over 250 and the “inhibitory activity against dThd kinase (in words)” value [9] was “no inhibitory activity”. The pKi ([9]; dThd kinase) was under 3.00.
For Nc1ccn([C@H]2CC[C@@H](CO)O2)c(=O)n1 [ddCyd, 2′,3′-Dideoxycytidine], the pEC50 [1, 10] was 6.52, the “HIV-induced cyto-pathogenicity S.I.” value [1] was 120 and the pEC50 [2] was 4.60. For the same compound, the “MSV-induced cyto-pathogenicity S.I.” value [2] was over 16, the pIC50 [3] was 5.22 and the pIC50 [4] was 3.61. The pIC50 [5] was at most 3.00, the pIC50 [6] was 5.15 and the pIC50 [7] was 4.64. The pIC50 [8] was 4.55.
For CCc1cn([C@H]2C[C@H](N=[N+]=[N-])[C@@H](CO)O2)c(=O)[nH]c1=O [AzddEtUrd, 3′-azido-2′,3′-dideoxy-5-ethyluridine], the pEC50 [1] was 4.19, the pEC50 [1, 10] was under 4.19 and the “HIV-induced cyto-pathogenicity S.I.” value [1] was 6.5. For the same compound, the pEC50 [2] was under 3.70, the pIC50 [3] was under 3.00 and the pIC50 [4] was under 3.00. It also gave a pIC50 [5] of 3.80, a pIC50 [6] of under 3.00 and a pIC50 [7] of under 3.00. The pIC50 [8] was under 3.00, the pKi ([9]; dThd kinase) was 3.76 and the Type of inhibition ([9]; dThd kinase) was “competitive”. The Ki/Km ([9]; dThd kinase, Km 2.5 to 6.6 µM) was 28.
In the case of O=c1ccn([C@H]2C[C@H](F)[C@@H](CO)O2)c(=O)[nH]1 [FddUrd, 3′-fluoro-2′,3′-dideoxyuridine], the “fold more effective against HIV replication than the parent compound ddUrd” value [1] was 5000 fold, the “fold more potent/effective against HIV than AzddUrd” value [1] was 9 fold and 10 fold and the pEC50 [1, 10] was 7.40. For the same compound, the “HIV-induced cyto-pathogenicity S.I.” value [1] was 400, the pEC50 [2] was under 3.40 and the pIC50 [3] was 4.85. The pIC50 [4] was under 3.00, the pIC50 [5] was under 3.00 and the pIC50 [6] was at most 3.00. For the same compound, the pIC50 [7] was under 3.00, the pIC50 [8] was under 3.00 and the pKi ([9]; dThd kinase) was 3.08. For the same compound, the Type of inhibition ([9]; dThd kinase) was “competitive” and the Ki/Km ([9]; dThd kinase, Km 2.5 to 6.6 µM) was 171.
